Experimental data as given in ChEMBL document CHEMBL5523670, “Structure activity relationship and target prediction for ABX464 analogues in Caenorhabditis elegans” (Bioorg Med Chem, 2024).

How the values were obtained:
[1] = test system: Caenorhabditis elegans; test: Anthelmintic activity against Caenorhabditis elegans N2 Bristol assessed as reduction in motility of young adults measured for 40 hrs; assay type: functional, organism-based; conditions: for IC50: Caenorhabditis elegans, N2 Bristol, 40 h
[2] = test system: Caenorhabditis elegans; test: Anthelmintic activity against Caenorhabditis elegans N2 Bristol assessed as maximum inhibition of motility measured for 40 hrs; assay type: functional
[3] = Cytotoxicity against human HepG2 cells measured for 48 hrs by crystal violet staining based analysis; assay type: toxicity, cell-based
[4] = Mitotoxicity against human HepG2 cells assessed as reduction in cell viability measured for 48 hrs by crystal violet staining based analysis; assay type: toxicity

Row | Structure (SMILES) | IC50 [1] [µM] | also measured
1 | FC(F)(F)Oc1ccc(Nc2ccc3cccc(Cl)c3n2)cc1Cl | > 40 | –
2 | FC(F)(F)c1ccc(Nc2ccc3cccc(Cl)c3n2)cc1C(F)(F)F | > 40 | –
3 | FC(F)(F)Oc1ccc(Nc2ccc3cccc(-c4ccccc4)c3n2)cc1 | > 40 | –
4 | FC(F)(F)Oc1ccc(Nc2ccc3ccccc3n2)cc1 | > 40 | –
5 | COc1ccccc1Nc1ccc2cccc(Cl)c2n1 | > 40 | –
6 | N#Cc1ccccc1Nc1ccc2cccc(Cl)c2n1 | > 40 | –
7 | FC(F)(F)c1ccc(Nc2ccc3cccc(Cl)c3n2)cc1 | – | CC50 at 48 h [3]: ≥ 40 µM; CC50 at 48 h [4]: ≥ 40 µM
8 | FC(F)(F)Oc1ccc(Nc2nc3ccccc3cc2Cl)cc1 | > 40 | –
9 | COc1cccc2ccc(Nc3ccc(OC(F)(F)F)cc3)nc12 | > 40 | –
10 | Clc1ccccc1Nc1ccc2cccc(Cl)c2n1 | > 40 | –
11 | COc1ccc(Nc2ccc3cccc(Cl)c3n2)cc1 | > 40 | –
12 | Fc1ccccc1Nc1ccc2cccc(Cl)c2n1 | > 40 | –
13 | FC(F)(F)Oc1ccccc1Nc1ccc2cccc(Cl)c2n1 | > 40 | –
14 | Clc1cccc2ccc(Nc3ccccc3-c3ccccc3)nc12 | > 40 | –
15 | FC(F)(F)c1ccc(Nc2ccc3cccc(Cl)c3n2)nc1 | > 40 | –
16 | FC(F)(F)c1ccc(Nc2ccc3cccc(Cl)c3n2)cn1 | > 40 | –
17 | N#Cc1ccc(Nc2ccc3cccc(Cl)c3n2)cc1 | > 40 | –
18 | FC(F)(F)Oc1cccc(Nc2ccc3cccc(Cl)c3n2)c1 | > 40 | –
19 | Cc1cccc2ccc(Nc3ccc(OC(F)(F)F)cc3)nc12 | > 40 | –
20 | FC(F)(F)Oc1ccc(Nc2ccc3cc(Cl)ccc3n2)cc1 | > 40 | –
21 | FC(F)(F)Oc1ccc(Nc2ccccn2)cc1 | > 40 | –
22 | N#Cc1cccc(Nc2ccc3cccc(Cl)c3n2)c1 | > 40 | –

Second part, led by results:

Row | IC50 [1] [µM] | Structure (SMILES) | also measured
23 | 78 | CN(c1ccc(OC(F)(F)F)cc1)c1ccc2cccc(Cl)c2n1 | Imax [2]: 81%; CC50 at 48 h [3]: ≥ 40 µM; CC50 at 48 h [4]: ≥ 40 µM
24 | > 40 | Clc1cccc2ccc(Nc3cccc(-c4ccccc4)c3)nc12 | –
25 | 3.2 | FC(F)(F)c1cccc(Nc2ccc3cccc(Cl)c3n2)c1 | Imax [2]: 55%
26 | > 40 | Oc1ccc(Nc2ccc3cccc(Cl)c3n2)cc1 | –
27 | > 40 | N#Cc1cccc2ccc(Nc3ccc(OC(F)(F)F)cc3)nc12 | –
28 | > 40 | Clc1cccc2ccc(Nc3ccc(-c4ccccc4)cc3)nc12 | –
29 | 7 | FC(F)(F)c1cc(Nc2ccc3cccc(Cl)c3n2)ccc1Cl | Imax [2]: 82%
30 | 28 | Cc1ccc(Nc2ccc3cccc(Cl)c3n2)cc1 | Imax [2]: 59%
31 | > 40 | FC(F)(F)c1ccccc1Nc1ccc2cccc(Cl)c2n1 | –
32 | > 40 | FC(F)(F)Oc1ccc(Oc2ccc3cccc(Cl)c3n2)cc1 | –
33 | 21 | COc1cccc(Nc2ccc3cccc(Cl)c3n2)c1 | –
34 | 7.2 | FC(F)(F)Oc1ccc(Nc2ccc3cccc(Cl)c3n2)cc1 [OBEFAZIMOD] | Imax [2]: 94%
35 | 14 | Clc1ccc(Nc2ccc3cccc(Cl)c3n2)cc1 | Imax [2]: 58%
36 | 0.03 | C[C@](C#N)(COc1cc(C#N)ccc1C(F)(F)F)NC(=O)c1ccc(SC(F)(F)F)cc1 [MONEPANTEL] | –
37 | 11 | FC(F)(F)Oc1ccc(Nc2cc(Cl)c3ccccc3n2)cc1 | –
38 | 0.1 | CO/N=C1\C[C@]2(C[C@@H]3C[C@@H](C/C=C(\C)C[C@@H](C)/C=C/C=C4\CO[C@@H]5[C@H](O)C(C)=C[C@@H](C(=O)O3)[C@]45O)O2)O[C@H](/C(C)=C/C(C)C)[C@H]1C [MOXIDECTIN] | –
39 | 11 | Clc1cccc2ccc(Nc3ccccc3)nc12 | Imax ([1]; time 40 hrs): 52%
40 | 7.1 | FC(F)(F)Oc1ccc(Nc2ccc3c(Cl)cccc3n2)cc1 | CC50 at 48 h [3]: ≥ 40 µM; CC50 at 48 h [4]: ≥ 40 µM
41 | 16 | Fc1ccc(Nc2ccc3cccc(Cl)c3n2)cc1 | Imax [2]: 57%
42 | 18 | Fc1cccc2ccc(Nc3ccc(OC(F)(F)F)cc3)nc12 | Imax [2]: 69%
43 | 6.9 | Clc1ccc(Nc2ccc3cccc(Cl)c3n2)cc1Cl | Imax [2]: 100%; CC50 at 48 h [3]: ≥ 40 µM; CC50 at 48 h [4]: ≥ 40 µM
44 | 5.9 | FC(F)(F)Oc1ccc(Nc2ccc3cccc(Br)c3n2)cc1 | Imax [2]: 67%
45 | 22 | Cc1cccc(Nc2ccc3cccc(Cl)c3n2)c1 | –
46 | 11 | Clc1cccc(Nc2ccc3cccc(Cl)c3n2)c1 | CC50 at 48 h [3]: ≥ 40 µM; CC50 at 48 h [4]: ≥ 40 µM
47 | 29 | Fc1cccc(Nc2ccc3cccc(Cl)c3n2)c1 | –
